Data: patent US10414728B2 (priority 2014, dated 2019)
Where a name gives a salt, the structure may show the parent alone. Read-outs that look alike come from different tables or passages of the source.

Tests used:
human NaV 1.7 = biological target: T1, human NaV 1.7 (Homo sapiens, UniProt Q15858); assay: Electrophysiology, IonWorks Barracuda, NaV channel block in CHO cells; type: cell-based; details: Nav1.7, CHO cells, 5 min exposure, ambient temperature
T1 construct: expressed in transfected cells; host or cells: CHO
Protocol: (§1) Effects on Human NaV 1.1, NaV 1.2, NaV1.3, NaV 1.4, NaV 1.5, NaV 1.6, NaV 1.7 and NaV 1.8/β3 Sodium Channels Expressed in Mammalian Cells
(§2) CHO cells were stably transfected with human ion channel cDNAs. Stable transfectants were selected by expression with the antibiotic-resistance gene(s) incorporated into the expression plasmid(s). Selection pressure was maintained by including selection antibiotics in the culture medium. CHO cells were cultured in Ham's F-12 supplemented with 10% fetal bovine serum, 100 U/mL penicillin G sodium, 100 μg/mL streptomycin sulfate and appropriate selection antibiotics. Before testing, cells in culture dishes were washed twice with Hank's Balanced Salt Solution (HB-PS) and treated with Accutase for approximately 20 minutes. Immediately before use in IonWorks Barracuda™, the cells were washed in HB-PS to remove the Accutase and re-suspended in HB-PS. All experiments were performed at ambient temperature. […] Duration of exposure to each test article concentration was five (5) minutes. Inhibition of NaV channels was measured using a stimulus voltage pattern. The pulse pattern was repeated before (baseline) and for five (5) minutes after compound addition. […]
(§3) where [C] was the concentration of test article, IC50 was the concentration of the test article producing half-maximal inhibition, N was the Hill coefficient, % VC was the percentage of the current run-down (the mean current inhibition at the vehicle control) and % Block was the percentage of ion channel current inhibited at each concentration of a test article. Nonlinear least squares fits were solved with the XLfit add-in for Excel (Microsoft, Redmond, Wash.).

human NaV 1.1 = biological target: T2, human NaV 1.1 (Homo sapiens, UniProt P35498); assay: as above; type: cell-based; details: Nav1.1, CHO cells, 5 min exposure, ambient temperature
T2 construct: expressed in transfected cells; host or cells: CHO
Protocol: as §1, §2, §3

human NaV 1.4 = biological target: T3, human NaV 1.4 (Homo sapiens, UniProt P35499); assay: as above; type: cell-based; details: Nav1.4, CHO cells, 5 min exposure, ambient temperature
T3 construct: expressed in transfected cells; host or cells: CHO
Protocol: as §1, §2, §3

human NaV 1.6 = biological target: T4, human NaV 1.6 (Homo sapiens, UniProt Q9UQD0); assay: as above; type: cell-based; details: Nav1.6, CHO cells, 5 min exposure, ambient temperature
T4 construct: expressed in transfected cells; host or cells: CHO
Protocol: as §1, §2, §3

human NaV 1.8/β3 = biological target: T5, human NaV 1.8/β3 (Homo sapiens, UniProt Q9Y5Y9); assay: as above; type: cell-based; details: Nav1.8, CHO cells, 5 min exposure, ambient temperature
T5 construct: expressed in transfected cells; host or cells: CHO
Protocol: as §1, §2, §3

human NaV1.3 = biological target: T6, human NaV1.3 (Homo sapiens, UniProt Q9NY46); assay: as above; type: cell-based; details: Nav1.3, CHO cells, 5 min exposure, ambient temperature
T6 construct: expressed in transfected cells; host or cells: CHO
Protocol: as §1, §2, §3

NaV 1.1 to NaV 1.8 = assay: Electrophysiology, summary over the NaV panel; type: cell-based, human
Protocol: as §1
CHO cells were stably transfected with human ion channel cDNAs. Stable transfectants were selected by expression with the antibiotic-resistance gene(s) incorporated into the expression plasmid(s). Selection pressure was maintained by including selection antibiotics in the culture medium. CHO cells were cultured in Ham's F-12 supplemented with 10% fetal bovine serum, 100 U/mL penicillin G sodium, 100 μg/mL streptomycin sulfate and appropriate selection antibiotics. Before testing, cells in culture dishes were washed twice with Hank's Balanced Salt Solution (HB-PS) and treated with Accutase for approximately 20 minutes. Immediately before use in IonWorks Barracuda™, the cells were washed in HB-PS to remove the Accutase and re-suspended in HB-PS. All experiments were performed at ambient temperature. […] Duration of exposure to each test article concentration was five (5) minutes. Inhibition of NaV channels was measured using a stimulus voltage pattern. The pulse pattern was repeated before (baseline) and for five (5) minutes after compound addition. Peak current amplitudes were measured for test pulses TP1 (inactivated state inhibition), TP2, TP3 (tonic inhibition) and TP22 (use-dependent inhibition).
as §3

[1] = biological target: T7, Human recombinant serotonin 5-HT2A receptor (Homo sapiens, UniProt P28223); assay: Serotonin-mediated inositol phosphate (IP1) response in CHO-K1 cells; type: cell-based; details: screened at 1 μM, 30 minutes at 37° C.; for inhibition at 1 µM: CHO-K1, read-out: antagonism: inhibition of 0.3 μM serotonin-induced fluorescence response
T7 construct: expressed in transfected cells; host or cells: CHO-K1
Protocol: The 5-HT2 receptor class couples preferentially to Gq/G11 to increase hydrolysis of inositol phosphates and elevate cytosolic [Ca^2+]. Human recombinant serotonin 5-HT2A receptor stably expressed in CHO-K1 cells are used. Test compound and/or vehicle is incubated with the cells (5×10^5/ml) in stimulation buffer of IP1 Tb kit (Cisbio Bioassays) for 30 minutes at 37° C. Test compound-induced increase of fluorescence relative to the 10 μM serotonin response indicate possible serotonin 5-HT2A receptor agonist activity.

human NaV 1.2 = biological target: T8, human NaV 1.2 (Homo sapiens, UniProt Q99250); assay: Electrophysiology, IonWorks Barracuda, NaV channel block in CHO cells; type: cell-based; details: Nav1.2, CHO cells, 5 min exposure, ambient temperature
T8 construct: expressed in transfected cells; host or cells: CHO
Protocol: as §1, §2, §3

human NaV 1.5 = human NaV 1.5 (Homo sapiens, UniProt Q14524); assay: as above; details: Nav1.5, CHO cells, 5 min exposure, ambient temperature
Protocol: as §1, §2, §3

sodium channel site 2 = assay: Sodium channel site 2 radioligand binding ([3H]Batrachotoxinin); details: rat brain membranes, determined in previous studies
Solubility observation = type: physicochemical; details: DMSO and acetonitrile/water
Protocol: A solution of methyl biphenyl-4-yl(1,2,5,6-tetrahydropyridin-2-yl)acetate hydrochloride salt (10.0 g, crude) in acetonitrile (40 mL) was charged with Methyl tert.-butyl ether (80 mL) and water (7.0 mL) at room temperature. The reaction mixture was stirred for 10 min at room temperature. The resulted solids were filtered, washed with Methyl tert.-butyl ether (25 mL) and was dried to afford EXAMPLE 1E (Enantiomeric pair consisting of Methyl (2R)-biphenyl-4-yl[(2S)-1,2,5,6-tetrahydropyridin-2-yl]acetate hydrochloride, EXAMPLE 1C, & Methyl (2S)-biphenyl-4-yl[(2R)-1,2,5,6-tetrahydropyridin-2-yl]acetate hydrochloride, EXAMPLE 1D, 3.75 g) as a light brown solid (96.8% HPLC purity, m/z 308 [M+H]+).

[2] = read-out: IC50 TP2 (inactivated state)

T4 sequence (Q9UQD0 whole entry): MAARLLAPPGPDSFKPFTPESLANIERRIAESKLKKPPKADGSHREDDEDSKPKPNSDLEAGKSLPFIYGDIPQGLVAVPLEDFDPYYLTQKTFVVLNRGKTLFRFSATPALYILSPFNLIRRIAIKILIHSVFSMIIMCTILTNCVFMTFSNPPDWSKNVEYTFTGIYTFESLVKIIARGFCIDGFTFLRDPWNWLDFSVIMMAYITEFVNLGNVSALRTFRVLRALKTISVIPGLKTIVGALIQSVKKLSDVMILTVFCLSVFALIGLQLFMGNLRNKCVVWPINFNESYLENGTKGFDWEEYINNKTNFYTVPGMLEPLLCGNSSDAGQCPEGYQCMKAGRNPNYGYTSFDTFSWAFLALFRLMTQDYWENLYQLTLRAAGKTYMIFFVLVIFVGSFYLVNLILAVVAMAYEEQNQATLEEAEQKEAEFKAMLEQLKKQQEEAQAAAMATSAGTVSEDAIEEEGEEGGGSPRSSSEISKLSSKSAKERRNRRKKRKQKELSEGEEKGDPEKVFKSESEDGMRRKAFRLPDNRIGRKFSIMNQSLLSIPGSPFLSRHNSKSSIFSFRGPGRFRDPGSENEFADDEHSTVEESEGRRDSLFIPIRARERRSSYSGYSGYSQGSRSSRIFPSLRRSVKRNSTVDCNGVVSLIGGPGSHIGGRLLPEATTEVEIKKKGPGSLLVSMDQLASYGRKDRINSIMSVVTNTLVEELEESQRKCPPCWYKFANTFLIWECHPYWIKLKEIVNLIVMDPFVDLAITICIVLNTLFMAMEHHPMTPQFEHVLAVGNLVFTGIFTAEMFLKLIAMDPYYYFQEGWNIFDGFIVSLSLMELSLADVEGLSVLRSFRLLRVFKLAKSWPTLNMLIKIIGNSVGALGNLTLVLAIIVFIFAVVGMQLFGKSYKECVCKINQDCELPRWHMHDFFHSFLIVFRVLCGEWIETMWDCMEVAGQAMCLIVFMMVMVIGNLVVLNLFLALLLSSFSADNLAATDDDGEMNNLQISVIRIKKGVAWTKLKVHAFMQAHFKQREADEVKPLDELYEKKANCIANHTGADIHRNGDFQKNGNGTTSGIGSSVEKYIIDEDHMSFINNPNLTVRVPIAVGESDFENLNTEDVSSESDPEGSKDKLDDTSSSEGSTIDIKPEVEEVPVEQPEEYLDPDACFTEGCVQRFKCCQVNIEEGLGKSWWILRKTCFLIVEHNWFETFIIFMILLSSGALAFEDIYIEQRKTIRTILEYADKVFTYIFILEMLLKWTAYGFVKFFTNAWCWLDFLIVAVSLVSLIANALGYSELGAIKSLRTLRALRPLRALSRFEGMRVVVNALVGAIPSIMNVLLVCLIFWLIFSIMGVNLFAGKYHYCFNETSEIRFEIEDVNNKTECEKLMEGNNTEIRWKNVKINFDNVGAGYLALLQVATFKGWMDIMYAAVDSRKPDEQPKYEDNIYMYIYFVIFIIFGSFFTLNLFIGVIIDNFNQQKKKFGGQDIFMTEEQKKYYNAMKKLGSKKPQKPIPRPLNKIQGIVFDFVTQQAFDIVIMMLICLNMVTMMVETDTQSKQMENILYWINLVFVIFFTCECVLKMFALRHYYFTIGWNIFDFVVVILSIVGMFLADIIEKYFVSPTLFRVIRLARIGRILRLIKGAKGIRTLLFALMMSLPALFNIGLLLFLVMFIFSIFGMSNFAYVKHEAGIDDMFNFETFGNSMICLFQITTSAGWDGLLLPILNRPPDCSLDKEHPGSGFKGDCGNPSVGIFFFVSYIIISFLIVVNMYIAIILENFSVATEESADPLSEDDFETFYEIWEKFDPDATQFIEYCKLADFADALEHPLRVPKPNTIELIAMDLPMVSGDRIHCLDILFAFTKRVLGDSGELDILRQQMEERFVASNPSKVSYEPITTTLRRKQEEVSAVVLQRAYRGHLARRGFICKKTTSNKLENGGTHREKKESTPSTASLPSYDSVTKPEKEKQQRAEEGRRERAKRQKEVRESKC
T1 sequence (Q15858 whole entry): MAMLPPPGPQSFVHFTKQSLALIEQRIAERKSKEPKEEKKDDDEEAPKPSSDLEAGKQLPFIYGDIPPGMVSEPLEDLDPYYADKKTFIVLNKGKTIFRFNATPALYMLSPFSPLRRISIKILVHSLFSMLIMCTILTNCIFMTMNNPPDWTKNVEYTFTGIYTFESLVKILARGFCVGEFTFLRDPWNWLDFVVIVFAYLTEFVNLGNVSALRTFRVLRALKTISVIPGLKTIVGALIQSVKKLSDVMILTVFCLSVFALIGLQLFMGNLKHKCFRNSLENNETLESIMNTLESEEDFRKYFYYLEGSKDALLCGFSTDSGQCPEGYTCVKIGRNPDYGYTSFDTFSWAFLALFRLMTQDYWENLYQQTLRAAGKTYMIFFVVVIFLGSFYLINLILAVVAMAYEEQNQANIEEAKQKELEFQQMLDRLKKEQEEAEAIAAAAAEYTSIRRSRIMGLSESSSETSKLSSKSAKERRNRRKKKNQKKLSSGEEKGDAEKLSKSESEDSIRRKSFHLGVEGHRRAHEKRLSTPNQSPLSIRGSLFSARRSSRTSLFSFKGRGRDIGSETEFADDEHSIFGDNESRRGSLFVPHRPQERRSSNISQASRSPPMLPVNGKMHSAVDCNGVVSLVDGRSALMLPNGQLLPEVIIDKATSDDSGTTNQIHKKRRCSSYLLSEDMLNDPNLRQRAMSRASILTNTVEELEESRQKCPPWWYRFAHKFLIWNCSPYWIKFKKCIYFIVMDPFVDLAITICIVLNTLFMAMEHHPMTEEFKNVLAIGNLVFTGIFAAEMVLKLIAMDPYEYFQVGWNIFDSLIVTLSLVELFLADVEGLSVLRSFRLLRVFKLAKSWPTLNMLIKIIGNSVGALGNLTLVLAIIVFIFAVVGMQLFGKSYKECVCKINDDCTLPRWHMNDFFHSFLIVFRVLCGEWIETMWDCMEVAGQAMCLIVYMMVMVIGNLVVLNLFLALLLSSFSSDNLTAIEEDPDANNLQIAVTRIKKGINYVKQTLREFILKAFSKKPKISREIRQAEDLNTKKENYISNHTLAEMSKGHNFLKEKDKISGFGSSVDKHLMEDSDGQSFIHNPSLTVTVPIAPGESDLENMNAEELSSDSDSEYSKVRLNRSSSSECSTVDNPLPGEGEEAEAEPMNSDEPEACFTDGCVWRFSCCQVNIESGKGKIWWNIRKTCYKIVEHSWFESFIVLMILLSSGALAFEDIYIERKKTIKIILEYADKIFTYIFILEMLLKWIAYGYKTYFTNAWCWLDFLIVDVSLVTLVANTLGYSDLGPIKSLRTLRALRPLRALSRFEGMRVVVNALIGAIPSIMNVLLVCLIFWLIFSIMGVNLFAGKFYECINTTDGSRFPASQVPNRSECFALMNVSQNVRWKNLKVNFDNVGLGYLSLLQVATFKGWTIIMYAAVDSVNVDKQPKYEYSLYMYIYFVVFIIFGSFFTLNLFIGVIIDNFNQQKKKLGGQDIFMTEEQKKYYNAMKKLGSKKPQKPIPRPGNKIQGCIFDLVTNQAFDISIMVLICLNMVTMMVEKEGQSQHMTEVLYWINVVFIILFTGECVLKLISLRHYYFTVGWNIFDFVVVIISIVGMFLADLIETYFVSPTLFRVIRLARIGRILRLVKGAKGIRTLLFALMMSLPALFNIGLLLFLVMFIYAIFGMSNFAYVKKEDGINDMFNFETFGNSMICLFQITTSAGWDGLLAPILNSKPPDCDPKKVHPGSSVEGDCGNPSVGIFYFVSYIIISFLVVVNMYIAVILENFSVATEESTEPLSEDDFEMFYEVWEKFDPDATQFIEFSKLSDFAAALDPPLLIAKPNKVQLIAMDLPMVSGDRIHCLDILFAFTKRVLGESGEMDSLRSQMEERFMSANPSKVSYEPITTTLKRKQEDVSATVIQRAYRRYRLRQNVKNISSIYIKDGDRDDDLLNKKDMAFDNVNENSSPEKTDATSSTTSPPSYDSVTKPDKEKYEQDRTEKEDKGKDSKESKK
T7 sequence (P28223 whole entry): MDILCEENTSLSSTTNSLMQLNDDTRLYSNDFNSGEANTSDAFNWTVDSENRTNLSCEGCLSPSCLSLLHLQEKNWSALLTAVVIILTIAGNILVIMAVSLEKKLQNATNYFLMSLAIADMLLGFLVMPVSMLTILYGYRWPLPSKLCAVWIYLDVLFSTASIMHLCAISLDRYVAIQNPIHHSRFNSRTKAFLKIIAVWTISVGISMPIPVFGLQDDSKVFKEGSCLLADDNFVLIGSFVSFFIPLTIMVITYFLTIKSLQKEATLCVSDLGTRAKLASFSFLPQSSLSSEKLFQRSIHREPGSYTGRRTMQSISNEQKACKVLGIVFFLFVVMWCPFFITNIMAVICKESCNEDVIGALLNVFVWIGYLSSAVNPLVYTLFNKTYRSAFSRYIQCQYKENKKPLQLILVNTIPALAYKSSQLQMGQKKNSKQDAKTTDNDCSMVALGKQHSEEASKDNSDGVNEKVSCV

Row | Compound | inhibition to NaV 1.1 to NaV 1.8 (NaV 1.1 to NaV 1.8) | inhibition at 1 µM [1] | agonist activity (increase of fluorescence relative to the 10 μM serotonin response) [1] | IC50 (human NaV 1.7; IC50 TP1 (tonic)) | IC50 (human NaV 1.7; IC50 TP2 (inactivated state)) | IC50 (human NaV 1.1; IC50 TP1 (tonic)) | IC50 (human NaV 1.1; IC50 TP2 (inactivated state)) | IC50 (human NaV 1.4; IC50 TP1 (tonic)) | IC50 (human NaV 1.4; IC50 TP2 (inactivated state)) | IC50 (human NaV 1.6; IC50 TP1 (tonic)) | IC50 (human NaV 1.6; IC50 TP2 (inactivated state)) | IC50 (human NaV 1.8/β3; IC50 TP1 (tonic)) | IC50 (human NaV 1.8/β3; IC50 TP2 (inactivated state)) | IC50 (human NaV1.3; IC50 TP1 (tonic)) | IC50 (human NaV1.3; IC50 TP2 (inactivated state)) | IC50 (human NaV 1.2; IC50 TP1 (tonic)) | IC50 (human NaV 1.2; IC50 TP2 (inactivated state)) | IC50 (human NaV 1.5; IC50 TP1 (tonic)) | IC50 (human NaV 1.5; IC50 TP2 (inactivated state)) | other results
1 | CCN(CC)CC(=O)Nc1c(C)cccc1C [Lidocaine, reference compound] | – | – | – | – | – | – | – | – | – | – | – | – | – | – | – | – | – | – | – | IC50 (human NaV 1.7; read-out: IC50 TP1 (tonic)): 382 µM; IC50 (human NaV 1.7; [2]): 154 µM; IC50 (human NaV 1.1; read-out: IC50 TP1 (tonic)): 543 µM; IC50 (human NaV 1.1; [2]): 465 µM; IC50 (human NaV 1.4; read-out: IC50 TP1 (tonic)): 389 µM; IC50 (human NaV 1.4; [2]): 162 µM; IC50 (human NaV 1.6; read-out: IC50 TP1 (tonic)): 423 µM; IC50 (human NaV 1.6; [2]): 188 µM; IC50 (human NaV 1.8/β3; read-out: IC50 TP1 (tonic)): 280 µM; IC50 (human NaV 1.8/β3; [2]): 51.4 µM; IC50 (human NaV1.3; read-out: IC50 TP1 (tonic)): 555 µM; IC50 (human NaV1.3; [2]): 165 µM
2 | COC(=O)[C@@H](c1ccc(-c2ccccc2)cc1)[C@H]1C=CCCN1 [EXAMPLE 1D, Methyl (2S)-biphenyl-4-yl[(2R)-1,2,5,6-tetrahydropyridin-2-yl]acetate hydrochloride] | showed inhibition | 37% | no agonist activity | > 30 µM | 2 µM | > 30 µM | 2.2 µM | > 30 µM | 1.3 µM | > 30 µM | 2 µM | > 30 µM | 1.8 µM | > 30 µM | 2 µM | > 30 µM | 2.1 µM | > 30 µM | 2 µM | –
3 | COC(=O)C(c1ccc(-c2ccccc2)cc1)C1C=CCCN1.Cl (stereo not shown) [EXAMPLE 1, methyl biphenyl-4-yl(1,2,5,6-tetrahydropyridin-2-yl)acetate hydrochloride salt] | – | – | no agonist activity | – | – | – | – | – | – | – | – | – | – | – | – | – | – | – | – | –
4 | [3H]Batrachotoxinin | – | – | – | – | – | – | – | – | – | – | – | – | – | – | – | – | – | – | – | Kd (sodium channel site 2): 0.052 µM
5 | COC(=O)[C@H](c1ccc(-c2ccccc2)cc1)[C@@H]1C=CCCN1 (racemic) [EXAMPLE 1E] | showed inhibition | – | – | > 30 µM | 1.3 µM | > 30 µM | 1.5 µM | > 30 µM | 1.2 µM | > 30 µM | 1.2 µM | > 30 µM | 1.1 µM | > 30 µM | 1.3 µM | > 30 µM | 1.5 µM | > 30 µM | 1.2 µM | solubility (Solubility observation): soluble in DMSO and acetonitrile/water
6 | COC(=O)[C@H](c1ccc(-c2ccccc2)cc1)[C@@H]1C=CCCN1.Cl [EXAMPLE 1C, Methyl (2R)-biphenyl-4-yl[(2S)-1,2,5,6-tetrahydropyridin-2-yl]acetate hydrochloride] | showed inhibition | 30% | no agonist activity | > 30 µM | 2.5 µM | > 30 µM | 2.1 µM | > 30 µM | 1.5 µM | > 30 µM | 2.2 µM | > 30 µM | 1.9 µM | > 30 µM | 2.2 µM | > 30 µM | 3.1 µM | > 30 µM | 1.5 µM | –
